Assay results: patent US4661516A, “Diaminocyclohexane platinum complexes” (Research Corporation, priority 1984, dated 1987)

How the values were obtained:
[1] = BUN (RUN [sic]) with the acute lethality data (Table XIII); assay type: in vivo; conditions: mean + 1 S.D.
[2] = Acute lethality, single intraperitoneal injection (Table XIII); assay type: in vivo
[3] = test system: L1210 leukemia cells (L1210/PDD); assay: In vitro cytotoxicity / cross-resistance, L1210/PDD (L1210/DDP) cells resistant to cisdiamminedichloroplatinum(II); assay type: cell-based; conditions: for ID50 L1210/PDD: 96 hours; for ID50 L1210/DDP: Tables VII and VIII, 5760 min
Description: Four ml of cell suspension were added to culture tubes and the appropriate concentration (0.01, 0.1, 1 or 10 μg/ml final drug concentration) was added. After 96 hours the cell concentration of control and experimental cultures were calculated with the aid of a Coulter Counter® Model ZBf and the percent inhibition calculated.

Male albino mice = assay: Acute toxicity, single intraperitoneal injection (Example 19); assay type: in vivo; conditions: single i.p.; for Calculated LD10 / Calculated LD50 / Calculated LD90: 14 days
Description: Fourteen days after treatment all surviving mice were sacrified and the LD10, LD50 and LD90 were calculated.

[4] = test system: Wild type L1210 leukemic cells; assay: In vitro cytotoxicity, wild type L1210 leukemic cells (L1210/0); assay type: cell-based; conditions: for ID50: L1210, 72 hours incubation; for ID50 L1210/0: L1210/0, protocol of Example 14, Tables VII and VIII, 4320 min
Description: Four ml of cell suspension (10^5 cells/ml) are added to culture tubes and the appropriate concentration (0.01, 0.1, 1 or 10 μg/ml final concentration) of drug added to the culture tubes. After 72 hours of incubation, the cell concentration of control and experimental cultures are determined with the aid of a Coulter Counter® Model ZBf and the percent inhibition calculated. […]

L1210/0 leukemia cells = assay: In vivo anti-tumor activity, L1210 (L1210/0), multiple i.p. doses; parameters: species or system BDF1 mice; conditions: for Maximal Effective Dose: i.p. on days 1, 5 and 9; for LTS: survivors/treated 50 days after treatment
Description: BDF1 mice were inoculated intraperitoneally with 10^6 L1210 cells. About 24 hours after inoculation of the cells, the mice were injected intraperitoneally with varying dosages of complexes of the present invention. Six mice were used for each dosage level in each experiment with an equal number of control mice inoculated with 10^6 L1210 cells and left untreated with a given complex. The results [%T/C=(survival time of treated animals/survival time of control animals)×100] are set forth below. Long term survival signifies that animals were alive 60 days after inoculation with L1210 cells.
The procedure of Example 16 was repeated except that the treated animals were injected with multiple doses of the complex as indicated below:
The anti-tumor activity of compound number 3 was evaluated against cells sensitive to (L1210/0) and resistant to (L1210/PDD) the standard platinum complex cis-diamminedichloroplatinum(II).
The following complexes were tested in vivo oncolytic activity following 3 i.p. injections (days 1, 5, 9) according to the protocol described in Examples 16 and 17.
BDF1 mice were innoculated intraperitoreally with 10^6 L1210 leukemia cells and treatment was begun on the next day (day 1). Two treatment schedules, i.e. single i.p. injection of the drug and i.p. injections on days 1, 5 and 9 according to the protocol described in Examples 16 and 17 were used.

L1210 cells = assay: In vivo anti-tumor activity, L1210, single i.p. injection; parameters: species or system BDF1 mice; conditions: for Maximal Effective Dose: single i.p. injection
Description: About 24 hours after inoculation of the cells, the mice were injected intraperitoneally with varying dosages of complexes of the present invention. […] Long term survival signifies that animals were alive 60 days after inoculation with L1210 cells.

B16 cells = assay: Melanotic melanoma test, i.p. inoculated B16 melanoma; assay type: in vivo, BDF1 mice; conditions: for Maximal Effective Dose: B16, i.p. days 1, 5 and 9; for % T/C / Long Term Survivors: B16, i.p. days 1, 5 and 9, at maximal effective dose; for Long Term Survivors: 60 days
Description: The animals used were BDF1 mice, all of the same sex, weighing a minimum of 18 g. and all within a 4 g. weight range. There were 6 animals per test group. […] The test compounds were administered intraperitoneally on days 1, 5 and 9 at various doses. The animals were weighed and survivors were recorded on a regular basis for 60 days. The median survival time and the ratio of survival time for treated (T)/control (C) animals were calculated. […] The criterion for efficacy is T/C×100≥125%.

[5] = Tables X and XI, days 1, 5 and 9, at maximal effective dose, alive 60 days after tumor inoculation
[6] = Tables X and XI, i.p. on days 1, 5 and 9, at maximal effective dose
[7] = Table IX, single i.p., at maximal effective dose

Molecule | RUN [1] [mg/100 ml] | LD10 [2] [mg/kg] | LD50 [2] [mg/kg] | LD90 [2] [mg/kg] | ID50 L1210/PDD [3] [µg/mL] | DEATHS/TREATED (Male albino mice; 100 mg/kg) | DEATHS/TREATED (Male albino mice; 125 mg/kg) | DEATHS/TREATED (Male albino mice; 158 mg/kg) | ID50 [4] [µg/mL] | Long Term Survivors (L1210/0 leukemia cells; [5]) | Maximal Effective Dose (L1210/0 leukemia cells; Tables X and XI) [mg/kg] | % T/C (L1210/0 leukemia cells; [6]) [%] | Maximal Effective Dose (L1210 cells; Table IX) [mg/kg] | % T/C (L1210 cells; [7]) [%] | % T/C (L1210 cells; single i.p., 50 mg/kg) [%] | ID50 L1210/DDP [3] [µg/mL] | Maximal Effective Dose (B16 cells) [mg/kg] | % T/C (B16 cells) [%] | Long Term Survivors (B16 cells) | ID50 L1210/0 [4] [µg/mL] | further results
O.O.O=C([O-])C[N-]CC(=O)O.[NH-]C1CCCCC1[NH-].[Pt] [Compound 11, iminodiacetato(DACH)Pt(II).2H2 O] | 23 ± 4 | 53 | 107 | 169 | 1.6 | 3/6 | 5/6 | 4/6 | 4.2 | 2/6 | 50 | 220 | 50 | 163 | 163 |  |  |  |  |  | DEATHS/TREATED (Male albino mice; 85 mg/kg): 1/6; DEATHS/TREATED (Male albino mice; 200 mg/kg): 6/6; Calculated LD10 (Male albino mice): 80 mg/kg; Calculated LD50 (Male albino mice): 115 mg/kg; Calculated LD90 (Male albino mice): 155 mg/kg; % T/C (L1210/0 leukemia cells; 25 mg/kg, days 1,5,9): 199%; % T/C (L1210/0 leukemia cells; 50 mg/kg, days 1,5,9): 220%; Long Term Survivors (L1210/0 leukemia cells; 50 mg/kg, days 1,5,9): 2/6; % T/C (L1210 cells; single i.p., 100 mg/kg): 109%; toxicity remark (L1210 cells; single i.p., 100 mg/kg): Apparent Toxicity
NC1CCCCC1N.O.O.O=C([O-])CN(CCO)CC(=O)[O-].[Pt+2] [Compound 39, N--(2-Hydroxyethyl)-iminodiacetato(DACH)Pt(II).2H2 O] | 18 ± 2 | 63 | 150 | 301 |  |  |  |  | 3.0 | 4/6 | 25 | 450 | 25 | 180 |  | 0.9 | 25 | 196 | 2/6 | 0.7 | 
CN(CC(=O)[O-])CC(=O)[O-].N[C@@H]1CCCC[C@H]1N.[Pt+2] [Identifier No. 11a, mono-N--methyliminodiacetato] |  |  |  |  |  |  |  |  |  | 6/6 | 6.25 | 700 |  |  |  | 1.9 | 25 | 210 | 2/6 | 0.8 | 
NC1CCCCC1N.O=C([O-])CN(CC(=O)[O-])Cc1ccccc1.[Pt+2] [Compound 38, N--Benzyliminodiacetato(DACH)Pt(II)] | 27 ± 3 | 81 | 140 | 210 |  |  |  |  | 2.3 | 2/6 | 12.5 | 397 | 25 | 170 | 158 | 0.8 | 12.5 | 207 | 1/6 | 1.0 | % T/C (L1210/0 leukemia cells; 6.25 mg/kg i.p., days 1, 5, 9, 30 day observation period): 277%; % T/C (L1210/0 leukemia cells; 12.5 mg/kg i.p., days 1, 5, 9, 30 day observation period): 287%; LTS (L1210/0 leukemia cells; 12.5 mg/kg, days 1, 5, 9): 1/6; % T/C (L1210/0 leukemia cells; 25 mg/kg i.p., days 1, 5, 9, 30 day observation period): 240%; LTS (L1210/0 leukemia cells; 25 mg/kg, days 1, 5, 9): 2/6; % T/C (L1210 cells; single i.p., 12.5 mg/kg): 123%; % T/C (L1210 cells; single i.p., 25 mg/kg): 170%
cis-bis-D-monosaccharato(DACH)Pt(II).3H2 O [Compound 8] |  |  |  |  | 0.9 | 1/6 | 1/6 | 4/6 | 2.8 |  |  |  |  |  | 156 |  |  |  |  |  | DEATHS/TREATED (Male albino mice; 200 mg/kg): 3/6; DEATHS/TREATED (Male albino mice; 250 mg/kg): 6/6; Calculated LD10 (Male albino mice): 115 mg/kg; Calculated LD50 (Male albino mice): 155 mg/kg; Calculated LD90 (Male albino mice): 220 mg/kg; % T/C (L1210/0 leukemia cells; 25 mg/kg, days 1,5,9): 206%; % T/C (L1210/0 leukemia cells; 50 mg/kg, days 1,5,9): 225%; Long Term Survivors (L1210/0 leukemia cells; 50 mg/kg, days 1,5,9): 1/6; % T/C (L1210 cells; single i.p., 12.5 mg/kg): 120%; % T/C (L1210 cells; single i.p., 25 mg/kg): 129%; % T/C (L1210 cells; single i.p., 100 mg/kg): 151%; % T/C (L1210 cells; single i.p., 200 mg/kg): Toxic
